Experiments:
[1] = tested on: dissociated hippocampal cultures; assay: Cell death assay (propidium iodide), protection from 30 mM ethanol; type: cell-based, rat; conditions: Table 3, 5 hour test period, co-treatment with 30 mM ethanol; for IC50: read-out: Propidium Iodide (IC50 + SE)
[2] = tested on: dissociated hippocampal cultures (primary neurons); assay: Neuronal viability assay (CFDA), neuroprotection from 30 mM ethanol; type: cell-based, rat; conditions: Table 3, 5 hour test period, co-treatment with 30 mM ethanol; for EC50: read-out: CFDA (EC50 + SE)
Excerpt: Pre-coated poly-D-lysine coated plates will be used because of the adherence and survival of hippocampal neurons and glia on this matrix support.
Carboxyfluorescein (CFDA) was used a vital stain for all neuroprotection studies. With the use of the CytoFluor fluorimeter, the CFDA assay was employed to assess the viability of neurons. […] Neuronal specificity is obtained relative to astrocytes because the cleaved dye is extruded extracellularlly by glia with time, while dye in neurons remains intracellular.

| Compound | IC50 [1] | EC50 [2] | Propidium Iodide (IC50 + SE) [1] | CFDA (EC50 + SE) [2] |
| --- | --- | --- | --- | --- |
| CCCCC/C=C\C/C=C\CCCCCCCC(=O)OCC(COP(=O)([O-])OCC[N+](C)(C)C)OC(=O)CCCCCCC/C=C\C/C=C\CCCCC (stereo not shown) [PC 18:2-18:2, 1,2-dilinoleoyl-phosphatidylcholine] | 0.044 ± 0.015 nM | 0.067 ± 0.022 nM |  |  |
| PC 16:0-18:2 [reference compound] |  |  | Inactive | Inactive |
| CC/C=C\C/C=C\C/C=C\CCCCCCCC(=O)OC[C@H](COP(=O)([O-])OCC[N+](C)(C)C)OC(=O)CCCCCCC/C=C\C/C=C\C/C=C\CC [PC 18:3-18:3, 1,2-dilinolenoyl-phosphatidylcholine] | 0.204 ± 0.088 nM | 0.202 ± 0.022 nM |  |  |
| CC/C=C\C/C=C\C/C=C\C/C=C\C/C=C\C/C=C\CCC(=O)OC[C@H](COP(=O)([O-])OCC[N+](C)(C)C)OC(=O)CC/C=C\C/C=C\C/C=C\C/C=C\C/C=C\C/C=C\CC [PC 22:6-22:6] | 0.21 ± 0.053 nM | 0.283 ± 0.046 nM |  |  |
| CCCCC/C=C\C/C=C\C/C=C\C/C=C\CCCC(=O)OC[C@H](COP(=O)([O-])OCC[N+](C)(C)C)OC(=O)CCC/C=C\C/C=C\C/C=C\C/C=C\CCCCC [PC 20:4-20:4, 1,2-diarachidonyl-phosphatidylcholine] | 0.0012 ± 0.00012 nM | 0.001 ± 8e-05 nM |  |  |

Source: patent US20220257620A1, “USE OF CERTAIN PHOSPHATIDYLCHOLINES CONTAINING LONG CHAIN POLYUNSATURATED FATTY ACIDS AS NEUROPROTECTIVE AGENTS” (KANNALIFE SCIENCES, INC., priority 2019, published 2022)
